Source: patent US20070092444A1, “Inhibition of inward sodium currents in cancer” (priority 2003, published 2007)

What was measured:
[1] = biological target: T1, ASIC1 (Homo sapiens, UniProt P78348); assay: Wild-type ASIC1 in planar lipid bilayers, single channel recording; type: biochemical; settings: amiloride; bilayers
T1 sequence (P78348 1-528): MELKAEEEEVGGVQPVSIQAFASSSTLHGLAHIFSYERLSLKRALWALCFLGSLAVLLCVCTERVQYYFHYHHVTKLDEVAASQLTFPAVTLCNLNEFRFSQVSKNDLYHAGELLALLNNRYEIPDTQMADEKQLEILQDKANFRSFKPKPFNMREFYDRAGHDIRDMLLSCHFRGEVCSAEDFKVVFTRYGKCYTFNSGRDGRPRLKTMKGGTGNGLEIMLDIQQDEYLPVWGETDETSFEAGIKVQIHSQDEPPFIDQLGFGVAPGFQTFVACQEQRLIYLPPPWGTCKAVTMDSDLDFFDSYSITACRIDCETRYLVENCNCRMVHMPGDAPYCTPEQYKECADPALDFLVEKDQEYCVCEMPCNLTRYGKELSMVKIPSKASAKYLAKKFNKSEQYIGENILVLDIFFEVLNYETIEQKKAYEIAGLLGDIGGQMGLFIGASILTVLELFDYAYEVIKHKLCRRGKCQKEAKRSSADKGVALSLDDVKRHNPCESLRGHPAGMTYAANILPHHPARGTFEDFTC
Procedure: An expanded time scale is shown below each trace.
Wild-type ASIC1 incorporated into planar lipid bilayers at neutral pH or at acidic extracellular pH was also examined.
(§1) Membrane potential was held at −60 mV, and the pHo was step decreased to 4.0 for 10 s, and then returned to 7.4 for 30 s before repeating the sequence.
Control single channel were record for ASIC1 containing channels in bilayers bathed with symmetrical 100 mM NaCl, 10 mM MOPS, pH 6.2. Holding potential was +100 mV referred to the virtually grounded trans chamber. For illustration purposes, data shown were digitally filtered at 100 Hz using pCLAMP software (Axon Instruments) subsequent to acquisition of the analog signal filtered at 300 Hz with an 8-pole Bessel filter before acquisition at 1 ms per point. An expanded time scale is shown below each trace (FIG. 21).
Representative dwell-time histograms were constructed following the events analyses performed using pCLAMP software (Axon Instruments) on single channel recordings of 10 min in duration filtered at 300 Hz with an 8-pole Bessel filter before acquisition at 1 ms per point using pCLAMP software and hardware. The event detection thresholds were 50% in amplitude of transition between closed and open states, and 3 ms in duration. Closed and open time constants shown were determined by fitting the closed and open time histograms to the probability density function (Sigworth and Sine, 1987), and using the Simplex least square routine of pSTAT. Number of bins per decade in all histograms was 16.

[2] = system: Na^+/H^+ exchange; settings: glial / glioma cells; references 72, 73; cited from earlier work
[3] = biological target: T2, ASIC2 (Homo sapiens, UniProt Q16515); assay: ASIC2 in planar lipid bilayers; type: biochemical
T2 sequence (Q16515 1-512): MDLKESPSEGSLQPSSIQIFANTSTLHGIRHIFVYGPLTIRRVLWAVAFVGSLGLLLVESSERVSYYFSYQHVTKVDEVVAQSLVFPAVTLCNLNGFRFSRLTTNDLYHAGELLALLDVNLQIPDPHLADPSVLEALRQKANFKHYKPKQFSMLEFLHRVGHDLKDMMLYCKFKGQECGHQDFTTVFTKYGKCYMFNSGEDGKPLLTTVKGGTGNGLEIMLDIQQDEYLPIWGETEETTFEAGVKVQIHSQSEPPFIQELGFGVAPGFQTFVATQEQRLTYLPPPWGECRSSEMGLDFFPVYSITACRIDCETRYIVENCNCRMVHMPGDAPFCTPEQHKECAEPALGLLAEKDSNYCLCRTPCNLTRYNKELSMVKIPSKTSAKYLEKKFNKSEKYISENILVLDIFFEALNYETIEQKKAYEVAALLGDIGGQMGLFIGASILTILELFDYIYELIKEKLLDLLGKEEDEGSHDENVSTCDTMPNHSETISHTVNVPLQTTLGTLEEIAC
From the text: as §1

[4] = system: U87-MG cells; assay: Cell growth in culture; type: cell-based, human; settings: 80 nM PcTX1
[5] = system: primary GBM cultures; assay: Transwell Migration Assay, primary GBM cultures; type: cell-based, human; settings: 3 h, vitronectin
Procedure: Approximately 10,000 cells were added to the upper side of a filter insert perforated with 5-8 μm holes, and induced to migrate through these pores toward the extracellular matrix protein vitronectin (coated on the underside of the filter). PcTX1 or control scrambled PcTX1 peptide was added to each compartment at the same time as the cells. BSA-coated filter inserts were used as negative controls. After 3 h, cells were fixed with 4% paraformaldehyde, and subsequently stained with crystal violet. Cells were counted on an inverted microscope, averaging five fields per Transwell chamber. Four-to-ten chambers were used under each condition.

| Molecule | kind of channel block [1] | inhibition of Na^+/H^+ exchange [2] | block of inward currents [3] | growth of cells in culture [4] | diminished ability to migrate through the filter [5] [%] |
| --- | --- | --- | --- | --- | --- |
| N=C(N)NC(=O)c1nc(Cl)c(N)nc1N [amiloride] | flickery-block | can inhibit | – | – | – |
| Psalmotoxin 1 [PcTX1] | – | – | not ASIC2 | significantly inhibited | > 90 |
